One assay concerns Del19/T790M/C797S EGFR. The experiment in a line: EGFR degradation HTRF assay in H1975-clone #28 (DTC) cells. As to conditions: H1975 # 28 DTC (Del19/T790M/C797S), 16h treatment; for DC50: HTRF; for Dmax (%): maximum percentage of degradation. It is filed as cell-based. The text has this:
(§1) H1975-clone #28(Del19/T790M/C797S, or abbr: DTC), H1975-clone #23(Del19/C797S, or abbr: DC), H1975-clone #25(L858R/T790M/C797S, or abbr: LTC) and H1975-clone #8 (L858R/C797S, or abbr: LC). EGFR-Del19:T790M/C797S, EGFR-Del19/C797S, EGFR-L858R/T790M/C797S and EGFR-L858R/C797S were stably expressed in H1975 cell lines by lentivirus-mediated over-expression, respectively. The EGFR over-expressed cells then underwent knockout, in which the EGFR targeting sgRNA was designed to only target the endogenous EGFR copies and preserve the exogenous EGFR copies. Followed by the knockout, the edited H1975 cells were seeded in 96 well plates at the concentration of […], cultured for about 2 weeks to allow single clones formation. The formed clones were screened by DNA sequencing and whole exon sequencing analysis for the desired edition. H1975-clone #28, H1975-clone #23, H1975-clone #25 and H1975-clone #8 were finally confirmed as homozygous Del19/T790M/C797S EGFR, Dell9/C797S EGFR, L858R/T790M/C797S EGFR and L858R/C797S EGFR clones, respectively.
(§2) H1975-#25, H1975-#28, H1975-#23 and H1975-#8 cells are treated with compounds diluted in 0.2% DMSO cell culture medium on day 2, incubate for 16h, 37° C., 5% CO2. the final concentration of compounds in all assay is start with 10 uM, 5-fold dilution, total 8 doses were included.
(§3) After 16h treatment, add HTRF lysis buffer to each well; seal the plate and incubate 1 hour at room temperature on a plate shaker; Once the cells are lysed, 16 μL of cell lysate are transferred to a PE 384-well HTRF detection plate; 4 μL of pre-mixed HTRF antibodies are added to each well; Cover the plate with a plate sealer, spin 1000 rpm for 1 min, Incubate overnight at room temperature; Read on BMG PheraStar with HTRF protocol (337 nm-665 nm-620 nm).
(§4) The IC50 (DC50) value of a compound can be obtained by fitting the following equation
(§5) Y=Bottom+(TOP−Bottom)/(1+((IC50/X)^hillslope))
(§6) Wherein, X and Y are known values, and IC50, Hillslope, Top and Bottom are the parameters obtained by fitting with software. Y is the inhibition percentage (calculated from the equation), X is the concentration of the compound: IC50 is the concentration of the compound when the 50% inhibition is reached. The smaller the IC50 value is, the stronger the inhibitory ability of the compound is. Vice versa, the higher the IC50 value is, the weaker the ability the inhibitory ability of the compound is: Hillslope represents the slope of the fitted curve, generally around 1*; Bottom represents the minimum value of the curve obtained by data fitting, which is generally 0%±20%; Top represents the maximum value of the curve obtained by data fitting, which is generally 100%±20%. The experimental data were fitted by calculating and analyzing with Dotmatics data analysis software.

A further assay concerns the target T1, L858R/T790M/C797S EGFR (Homo sapiens, UniProt P00533, C797S/L858R/T790M).
T1 construct: expressed in transfected cells; host or cells: H1975 clone #25 (lentiviral over-expression, endogenous EGFR knocked out by sgRNA)
Nature of the assay: EGFR degradation HTRF assay in H1975-clone #25 (LTC) cells. The settings on record: 16h treatment; for DC50: H1975 # 25-LTC (L858R/T790M/C797S), HTRF; for Dmax: NCI-H1975, H1975 # 25-LTC (L858R/T790M/C797S), maximum percentage of degradation. It is filed as cell-based.
Text: as §1, §2, §3, §4, §5, §6

T1 sequence (P00533 25-1210 T790M/C797S/L858R): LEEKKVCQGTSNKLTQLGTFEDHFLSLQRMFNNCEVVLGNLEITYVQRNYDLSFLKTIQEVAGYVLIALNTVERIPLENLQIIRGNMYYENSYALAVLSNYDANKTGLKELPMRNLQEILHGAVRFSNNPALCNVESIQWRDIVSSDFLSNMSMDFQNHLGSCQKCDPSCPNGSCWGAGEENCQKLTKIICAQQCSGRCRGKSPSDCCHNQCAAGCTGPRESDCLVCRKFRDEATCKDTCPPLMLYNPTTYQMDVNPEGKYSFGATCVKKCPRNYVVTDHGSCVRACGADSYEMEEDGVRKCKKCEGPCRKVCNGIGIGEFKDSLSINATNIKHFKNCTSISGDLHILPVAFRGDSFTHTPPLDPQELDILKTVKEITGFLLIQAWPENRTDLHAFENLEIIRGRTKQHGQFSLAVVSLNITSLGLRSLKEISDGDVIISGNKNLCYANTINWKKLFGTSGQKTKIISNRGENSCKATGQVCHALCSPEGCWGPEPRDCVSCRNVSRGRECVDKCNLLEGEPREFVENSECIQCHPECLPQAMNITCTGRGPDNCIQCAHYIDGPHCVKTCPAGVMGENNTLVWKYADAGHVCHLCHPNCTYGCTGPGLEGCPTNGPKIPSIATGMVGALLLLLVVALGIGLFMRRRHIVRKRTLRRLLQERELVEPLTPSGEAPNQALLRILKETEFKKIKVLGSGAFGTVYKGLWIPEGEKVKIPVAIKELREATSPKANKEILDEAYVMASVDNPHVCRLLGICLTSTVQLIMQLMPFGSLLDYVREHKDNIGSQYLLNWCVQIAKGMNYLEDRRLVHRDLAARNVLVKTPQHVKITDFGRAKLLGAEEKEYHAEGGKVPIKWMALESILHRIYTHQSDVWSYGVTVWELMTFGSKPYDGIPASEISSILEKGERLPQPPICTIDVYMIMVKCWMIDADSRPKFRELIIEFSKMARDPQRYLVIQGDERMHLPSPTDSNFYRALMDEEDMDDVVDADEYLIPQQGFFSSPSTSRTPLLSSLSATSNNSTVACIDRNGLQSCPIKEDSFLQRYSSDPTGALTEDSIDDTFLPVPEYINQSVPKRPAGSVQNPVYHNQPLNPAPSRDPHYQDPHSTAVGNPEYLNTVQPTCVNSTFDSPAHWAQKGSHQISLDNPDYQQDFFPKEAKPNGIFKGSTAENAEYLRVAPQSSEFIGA

On to `Cc1cc2cc(n1)-c1cnn(C)c1OCCC[C@@H](C)CN1/C(=N/C2=O)Nc2ccc(C(=O)N3CC(N(C)CCc4cc(F)c([C@H]5CCC(=O)NC5=O)c(F)c4)C3)cc21` [Example 306, (R)-3-(2,6-difluoro-4-(2-(methyl(1-((R,E)-1^1,2^6,7-trimethyl-3-oxo-5^2,5^3-dihydro-1^1H,5^1H-11-oxa-4-aza-5(2,1)-benzo[d]imidazola-2(2,4)-pyridina-1(4,5)-pyrazolacycloundecaphane-5^6-carbonyl)azetidin-3-yl)amino)ethyl)phenyl)piperidine-2,6-dione], for which, in the assay on Del19/T790M/C797S EGFR, the 50% degradation concentration (DC50) is 0.614 nM and the “Dmax (%)” value is 63.09%. At L858R/T790M/C797S EGFR, this molecule registered a 50% degradation concentration (DC50) of 0.742 nM and a Dmax of 84.3%.
On to `Cc1cc2cc(n1)-c1cnn(C)c1OCCC[C@@H](C)CN1/C(=N/C2=O)Nc2ccc(N3CC[C@H](C(=O)N4CCN(c5cc(F)c([C@H]6CCC(=O)NC6=O)c(F)c5)CC4)C3)cc21` [Example 358, (R)-3-(2,6-difluoro-4-(4-((S)-1-((R,E)-1^1,2^4,7-trimethyl-3-oxo-5^2,5^3-dihydro-1^1H,5^1H-11-oxa-4-aza-5(2,1)-benzo[d]imidazola-2(2,4)-pyridina-1(4,5)-pyrazolacycloundecaphane-5^6-yl)pyrrolidine-3-carbonyl)piperazin-1-yl)phenyl)piperidine-2,6-dione], for which, in the assay with Del19/T790M/C797S EGFR, half-maximal degradation (DC50) was put at 1.3 nM and the “Dmax (%)” value is 75.67%. On L858R/T790M/C797S EGFR, it took 0.622 nM to reach half-maximal degradation (DC50) and the Dmax turned out to be 89.6%.
In the same order, the values of `Cc1cc2cc(n1)-c1cnn(C)c1OCCC[C@@H](C)CN1/C(=N/C2=O)Nc2ccc(N3CCC(C(=O)N4CCN(c5cc(F)c([C@H]6CCC(=O)NC6=O)c(F)c5)CC4)CC3)cc21` [Example 333, (R)-3-(2,6-difluoro-4-(4-(1-((R,E)-1^1,2^6,7-trimethyl-3-oxo-5^2,5^3-dihydro-1^1H,5^1H-11-oxa-4-aza-5(2,1)-benzo[d]imidazola-2(2,4)-pyridina-1(4,5)-pyrazolacycloundecaphane-5^6-yl)piperidine-4-carbonyl)piperazin-1-yl)phenyl)piperidine-2,6-dione] are 0.684 nM, 75.17%, 0.687 nM and 86.1%.
In the same order, the values of `Cc1cc2cc(n1)-c1cnn(C)c1OCCC[C@@H](C)CN1/C(=N/C2=O)Nc2cc(F)c(C(=O)N(C)C3CCN(CCc4cc(F)c([C@H]5CCC(=O)NC5=O)c(F)c4)CC3)cc21` [Example 232, (R,E)-N-(1-(4-((R)-2,6-dioxopiperidin-3-yl)-3,5-difluorophenethyl)piperidin-4-yl)-5^5-fluoro-N,1^1,2^6,7-tetramethyl-3-oxo-5^2,5^3-dihydro-1^1H,5^1H-11-oxa-4-aza-5(2,1)-benzo[d]imidazola-2(2,4)-pyridina-1(4,5)-pyrazolacycloundecaphane-5^6-carboxamide] are 0.292 nM, 82.7%, 0.318 nM and 92%.
As for `CCN(C(=O)c1ccc2c(c1)N1C[C@H](C)CCCOc3c(cnn3C)-c3cc(cc(C)n3)C(=O)/N=C/1N2)C1CCN(CCc2cc(F)c([C@H]3CCC(=O)NC3=O)c(F)c2)CC1` [Example 241, (R,E)-N-(1-(4-((R)-2,6-dioxopiperidin-3-yl)-3,5-difluorophenethyl)piperidin-4-yl)-N-ethyl-1^1,2^6,7-trimethyl-3-oxo-5^2,5^3-dihydro-1^1H,5^1H-li-oxa-4-aza-5(2,1)-benzo[d]imidazola-2(2,4)-pyridina-1(4,5)-pyrazolacycloundecaphane-5^4-carboxamide], in the assay on Del19/T790M/C797S EGFR, the DC50 was found to be 0.328 nM and the “Dmax (%)” value was 76.68%. On L858R/T790M/C797S EGFR, this molecule displayed a DC50 of 0.403 nM and a Dmax of 87.7%.
Consider `Cc1cc2cc(n1)-c1cnn(C)c1OCCC[C@@H](C)CN1/C(=N/C2=O)Nc2ccc(C(=O)N[C@@H]3CCN(CCc4cc(F)c([C@H]5CCC(=O)NC5=O)c(F)c4)C[C@@H]3F)cc21` [Example 246, (R,E)-N-((3S,4R)-1-(4-((R)-2,6-dioxopiperidin-3-yl)-3,5-difluorophenethyl)-3-fluoropiperidin-4-yl)-1^1,2^6,7-trimethyl-3-oxo-5^2,5^3-dihydro-1^1H,5^1H-11-oxa-4-aza-5(2,1)-benzo[d]imidazola-2(2,4)-pyridina-1(4,5)-pyrazolacycloundecaphane-5^6-carboxamide], for which, in the assay with Del19/T790M/C797S EGFR, the DC50 turned out to be 0.602 nM and the “Dmax (%)” value came out at 85.73%. At L858R/T790M/C797S EGFR, this molecule returned a 50% degradation concentration (DC50) of 0.613 nM and a Dmax of 93.8%.
The matching figures for `Cc1cc2cc(n1)-c1cnn(C)c1OCCC[C@@H](C)CN1/C(=N/C2=O)Nc2ccc(CN3C[C@@H]4C[C@H]3CN4C(=O)[C@@H]3CCN(c4cc(F)c([C@H]5CCC(=O)NC5=O)c(F)c4)C3)cc21` [Example 82, (R)-3-(2,6-difluoro-4-((R)-3-((1S,4S)-5-(((R,E)-1^1,2^6,7-trimethyl-3-oxo-5^2,5^3-dihydro-1^1H,5^1H-11-oxa-4-aza-5(2,1)-benzo[d]imidazola-2(2,4)-pyridina-1(4,5)-pyrazolacycloundecaphane-5^6-yl)methyl)-2,5-diazabicyclo[2.2.1]heptane-2-carbonyl)pyrrolidin-1-yl)phenyl)piperidine-2,6-dione]: 0.7 nM, 78.4%, 0.6 nM and 88.6%.
With `Cc1cc2cc(n1)-c1cnn(C)c1OCC[C@H]1C[C@@H]1CN1/C(=N/C2=O)Nc2ccc(N3CCN(C4CCN(c5cnc(C6CCC(=O)NC6=O)cc5C)CC4)CC3)cc21` (stereo partly drawn) [Example 463, 3-(5-(4-(4-((7'S,7^2R,E)-1^1,2^6-dimethyl-3-oxo-5^2,5^3-dihydro-1^1H,5^1H-10-oxa-4-aza-5(2,1)-benzo[d]imidazola-2(2,4)-pyridina-1(4,5)-pyrazola-7(1,2)-cyclopropanacyclodecaphane-5^6-yl)piperazin-1-yl)piperidin-1-yl)-4-methylpyridin-2-yl)piperidine-2,6-dione], in the assay on Del19/T790M/C797S EGFR, the DC50 was determined as 0.604 nM and the “Dmax (%)” value was determined as 90.22%. On L858R/T790M/C797S EGFR, this molecule registered a DC50 of 0.624 nM and a maximal degradation (Dmax) of 91.8%.
As to `Cc1cc2cc(n1)-c1cnn(C)c1OCCC[C@@H](C)CN1/C(=N/C2=O)Nc2ccc(CN3CC4CC(C3)N4C(=O)[C@@H]3CCN(c4cc(F)c([C@H]5CCC(=O)NC5=O)c(F)c4)C3)cc21` [Example 163, (3R)-3-(2,6-difluoro-4-((3R)-3-(3-(((R,E)-1^1,2^6,7-trimethyl-3-oxo-5^2,5^3-dihydro-1^1H,5^1H-11-oxa-4-aza-5(2,1)-benzo[d]imidazola-2(2,4)-pyridina-1(4,5)-pyrazolacycloundecaphane-5^6-yl)methyl)-3,6-diazabicyclo[3.1.1]heptane-6-carbonyl)pyrrolidin-1-yl)phenyl)piperidine-2,6-dione], in the assay on Del19/T790M/C797S EGFR, the half-maximal degradation concentration (DC50) worked out at 1.76 nM and the “Dmax (%)” value turned out to be 66.41%. At L858R/T790M/C797S EGFR, this molecule showed a DC50 of 1.14 nM and a Dmax of 83.1%.

Values taken from patent US20240342292A1, “Compounds for the Degradation of EGFR Kinase” (BeiGene Switzerland GmbH, priority 2021, published 2024).
